Measurements reported in PMC6947571, “An Orthologue of the Retinoic Acid Receptor (RAR) Is Present in the Ecdysozoa Phylum Priapulida” (Genes, 2019).

Target: T1, HsaRARα LBD (Homo sapiens, UniProt P10276)
T1 construct: gene RARA; glutathione S-transferase fusion (pGEX-4T-1), E. coli BL21(DE3)
T1 sequence (P10276 183-417 limits assumed): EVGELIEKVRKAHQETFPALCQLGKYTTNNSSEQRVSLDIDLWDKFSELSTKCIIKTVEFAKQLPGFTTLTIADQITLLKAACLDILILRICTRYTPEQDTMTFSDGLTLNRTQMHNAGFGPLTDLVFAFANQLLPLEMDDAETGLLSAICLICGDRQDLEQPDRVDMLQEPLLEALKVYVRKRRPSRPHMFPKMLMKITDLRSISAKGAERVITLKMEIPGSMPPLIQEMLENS
Assay: competitive radioligand binding, hydroxyapatite precipitation
Conditions: 4 °C, labelled compound, positive control

Compound	competitive radioligand binding, hydroxyapatite precipitation (10 nM [3H]ATRA or [3H]9cisRA displaced by unlabelled 9cisRA)	competitive radioligand binding, hydroxyapatite precipitation (10 nM [3H]ATRA displaced by unlabelled ATRA)
CC1=C(/C=C/C(C)=C\C=C\C(C)=C\C(=O)O)C(C)(C)CCC1 [9cisRA]	Competition by ATRA and 9cisRA with [^3H]ATRA and [^3H]9cisRA for binding to the LBD	–
CC1=C(/C=C/C(C)=C/C=C/C(C)=C/C(=O)O)C(C)(C)CCC1 [ATRA]	–	Competition by ATRA and 9cisRA with [^3H]ATRA and [^3H]9cisRA for binding to the LBD
